Results on seven compounds are retold here after ChEMBL document CHEMBL1201862, “PubChem BioAssay data set” (2004).

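Following 48 hours of exposure in 96-well plates, responses at five concentrations were used to interpolate endpoints linearly. GI50 marks 50% less growth.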 Activity calls are given as the source filed them. No stated cut-off is given here; in the data, active = GI50 up to about 1.1 µM and inactive = higher. Bounds are passed on as bounds.

Among the test systems are ACHN; COLO 205; HCT-116; HCT-15; IGROV-1; KM12; MDA-MB-231; MDA-MB-435; MOLT-4; Malme-3M; NCI-H522; NCI/ADR-RES; SF-539; SK-MEL-5; SK-OV-3; SNB-75; SR; U-251; UACC-257; UO-31.
Holding throughout (assay): NCI-60 cell line screen, 48 h

As for `C=CC(=O)N1C/C(=C\c2ccc(Cl)cc2)C(=O)/C(=C/c2ccc(Cl)cc2)C1`, the GI50 in the test with ACHN was 0.286 µM (active); in the test on COLO 205 it was 0.39 µM (active); in the test with HCT-116 it was 0.0923 µM (active); with HCT-15, 0.182 µM; in the test on IGROV-1, 0.353 µM (active); in the test with KM12 it was 0.234 µM (active). Moreover, the GI50 was 0.255 µM (active) in the test with MDA-MB-231; 0.262 µM (active) in the test on MDA-MB-435; 0.3 µM (active) in the test on MOLT-4; 0.973 µM (active) with Malme-3M; 0.514 µM (active) in the test with NCI-H522; 0.436 µM (active) with NCI/ADR-RES. Further, the GI50 is 0.188 µM (active) in the test on SF-539; 1.36 µM (inactive) with SK-MEL-5; 0.656 µM (active) with SK-OV-3; 0.405 µM (active) in the test on SNB-75; 0.05 µM (active) in the test with SR; 0.173 µM (active) with U-251. The results for the GI50 in the test with UACC-257 and with UO-31 were 1.19 µM (inactive) and 0.335 µM (active), respectively.
As to `COc1ccc(S(=O)(=O)N2C(=O)CCC2C(=O)NN)cc1` (stereo not given), the GI50 is > 100 µM (inactive) in the test on ACHN; > 100 µM (inactive) with COLO 205; > 100 µM (inactive) in the test on HCT-116; > 100 µM in the test with HCT-15; > 100 µM (inactive) in the test with IGROV-1; > 100 µM (inactive) in the test with KM12. Moreover, the GI50 in the test with MDA-MB-231 is > 100 µM (inactive); in the test on MDA-MB-435, > 100 µM (inactive); in the test on MOLT-4, > 100 µM (inactive); with Malme-3M, > 100 µM (inactive); in the test on NCI-H522, 25.5 µM (inactive); in the test with NCI/ADR-RES it was > 100 µM (inactive). In addition, the GI50 in the test with SF-539, in the test on SK-MEL-5, in the test with SK-OV-3, with SNB-75, with SR and in the test with U-251 was > 100 µM (inactive) throughout. In addition, the GI50 with UACC-257 and in the test on UO-31 was > 100 µM (inactive) throughout.
As to `CCN(C(C)=O)c1cnc(/C=N/NC(N)=S)c2ccccc12`, the GI50 in the test on ACHN was 1.76 µM (inactive); with COLO 205 it was 4.83 µM (inactive); with HCT-116, 2.67 µM (inactive); in the test with HCT-15, 2.25 µM; in the test on IGROV-1, 2.76 µM (inactive); in the test on KM12 it was 2.94 µM (inactive). Moreover, the GI50 is 18.6 µM (inactive) with MDA-MB-231; 4.42 µM (inactive) with MDA-MB-435; 1.96 µM (inactive) in the test with MOLT-4; 11.4 µM (inactive) in the test with Malme-3M; 2.95 µM (inactive) in the test on NCI-H522; 10.6 µM (inactive) with NCI/ADR-RES. For the same compound, the GI50 is 2.93 µM (inactive) in the test on SF-539; 2.84 µM (inactive) with SK-MEL-5; 3.65 µM (inactive) in the test with SK-OV-3; 18.7 µM (inactive) with SNB-75; 0.631 µM (active) with SR; 3.85 µM (inactive) with U-251. Also, the GI50 was 30.1 µM (inactive) in the test with UACC-257 and 1.81 µM (inactive) in the test with UO-31.
On to `N#C/C(=C/n1c(=S)[nH]c2ccccc21)C(N)=O`, for which the GI50 with ACHN was > 100 µM (inactive); in the test on COLO 205, > 100 µM (inactive); with HCT-116, > 100 µM (inactive); in the test on HCT-15, > 100 µM; in the test on IGROV-1 it was > 100 µM (inactive); in the test with KM12, > 100 µM (inactive). In addition, the GI50 in the test on MDA-MB-231, in the test with MDA-MB-435, with MOLT-4, in the test with Malme-3M, in the test with NCI-H522 and with NCI/ADR-RES was > 100 µM (inactive) throughout. In addition, the GI50 in the test on SF-539, with SK-MEL-5, in the test on SK-OV-3, in the test on SNB-75, in the test on SR and in the test on U-251 was > 100 µM (inactive) in each case. The GI50 in the test on UACC-257 and in the test with UO-31 was > 100 µM (inactive) throughout.
As for `O=C(/C=C/c1ccc(O)c(O)c1)NC(CO)C(=O)O` (stereo not given), the GI50 was > 100 µM (inactive) in the test on ACHN; > 100 µM (inactive) in the test with COLO 205; > 100 µM (inactive) in the test with HCT-116; 1.08 µM in the test with HCT-15; 0.612 µM (active) in the test on IGROV-1; > 100 µM (inactive) in the test on KM12. For the same compound, the GI50 was > 100 µM (inactive) in the test on MDA-MB-231; > 100 µM (inactive) in the test with MDA-MB-435; > 100 µM (inactive) in the test with MOLT-4; > 100 µM (inactive) in the test on Malme-3M; > 100 µM (inactive) in the test on NCI-H522; 2.59 µM (inactive) with NCI/ADR-RES. Also, the GI50 in the test on SF-539, with SK-MEL-5, in the test with SK-OV-3, in the test with SNB-75, in the test with SR and with U-251 was > 100 µM (inactive) each time. Also, the GI50 in the test with UACC-257 and with UO-31 was > 100 µM (inactive) throughout.
As for `CCOP(=O)(OCC)/C(C#N)=C/c1c(C)[nH]c2ccccc12`, the GI50 is > 100 µM (inactive) with ACHN; > 100 µM (inactive) in the test with COLO 205; > 100 µM (inactive) in the test with HCT-116; > 100 µM in the test with HCT-15; > 100 µM (inactive) in the test with IGROV-1; > 100 µM (inactive) in the test on KM12. For the same compound, the GI50 in the test on MDA-MB-231, with MDA-MB-435, in the test with MOLT-4, in the test with Malme-3M, in the test with NCI-H522 and in the test with NCI/ADR-RES was > 100 µM (inactive) in each case. Besides, the GI50 in the test with SF-539, in the test on SK-MEL-5, in the test with SK-OV-3, with SNB-75, with SR and in the test with U-251 was > 100 µM (inactive) throughout. The GI50 is > 100 µM (inactive) in the test with UACC-257 and 30.4 µM (inactive) in the test on UO-31.
As to `COc1cccc(/C=C\c2ccc(O)cc2)c1`, the GI50 with ACHN was 3.64 µM (inactive); in the test on COLO 205, 48.1 µM (inactive); with HCT-116, 22.7 µM (inactive); with HCT-15, 23.7 µM; with IGROV-1, 26.7 µM (inactive); in the test on KM12, 1.4 µM (inactive). The GI50 in the test with MDA-MB-231 was 30.1 µM (inactive); in the test with MDA-MB-435, 19.5 µM (inactive); in the test with MOLT-4 it was 3.6 µM (inactive); in the test on Malme-3M, 20.2 µM (inactive); in the test with NCI-H522, 7.06 µM (inactive); in the test with NCI/ADR-RES, 6.12 µM (inactive). For the same compound, the GI50 with SF-539 is 13.7 µM (inactive); in the test with SK-MEL-5 it was 17.6 µM (inactive); with SK-OV-3 it was 36.5 µM (inactive); with SNB-75, 24 µM (inactive); with SR, 2.72 µM (inactive); in the test on U-251, 11.2 µM (inactive). Moreover, the GI50 in the test on UACC-257 is 26.7 µM (inactive); in the test with UO-31 it was 5.4 µM (inactive).
